Test system: Silverleaf Whitefly (Bemisia argentifolii)
Assay: Insecticidal test against silverleaf whitefly on cabbage seedlings (spray)
Type: in vivo
Settings: spray on infested cabbage seedlings, total of adults and larvae, 9 days after treatment
Text: Insecticidal Test Against Silverleaf Whitefly (Bemisia argentifolii)
To each of an aqueous dilution in a designated concentration of an emulsifiable concentrate of Compound A (commercial name: Lano EC, manufactured by Sumitomo Chemical Co., Ltd.) and a flowable of Compound B (commercial name: Sanmite flowable, manufactured by Nissan Chemical Industries, Ltd.), and a mixture of the emulsifiable concentrate of Compound A in a designated concentration with the flowable of Compound B in a designated concentration, a spreading agent (Shin-Rino, manufactured by Nihon Nohyaku Co., Ltd.) was added to make the amount of the spreading agent to 1/3000 of volume to prepare a spray solution.
Cabbage seedlings planted in 3 ounces plastic cup were placed in a net cage containing many living silverleaf whiteflies for 24 hours, so that silverleaf whiteflies became parasitic on the cabbage seedlings. Each of the above-prepared test solutions was sprayed with a spray gun. The number of silverleaf whiteflies (i.e., the total number of adults and larvae) surviving on the cabbage seedlings was examined just before and after 9 days from the treatment.

Compound | Number of surviving insects after 9 days (50 ppm active ingredient) | Number of surviving insects after 9 days (12.5 ppm active ingredient) | Number of surviving insects after 9 days (100 ppm active ingredient)
CC(COc1ccc(Oc2ccccc2)cc1)Oc1ccccn1 (stereo not shown) [Compound A, 4-phenoxyphenyl 2-(2-pyridyloxy)propyl ether] | 30 | – | –
CC(C)(C)c1ccc(CSc2cnn(C(C)(C)C)c(=O)c2Cl)cc1 [Compound B, 2-tert-butyl-5-(4-tert-butylbenzylthio)-4-chloropyridazin-3(2H)-one] | 10 | 155 | 13

— patent publication US6905699B2, “Insecticides” (Sumitomo Chemical Company, Limited, priority 2000, dated 2005)
